Data reported in article PMC9596378, “Discovery and molecular basis of subtype-selective cyclophilin inhibitors” (Nature Chemical Biology, 2022).

Columns and labels:
PPIL1 = molecular target: T1, PPIL1 (Homo sapiens, UniProt Q9Y3C6); experiment: Competition anisotropy binding assay with A26-Fl; conditions: FP competition with 0.5 nM A26-Fl, 24 h
T1 construct: PPIL1 (UniProtKB Entry Q9Y3C6: residues 1–166); made in house; host or cells: E. coli BL21(DE3)
T1 sequence (Q9Y3C6 1-166): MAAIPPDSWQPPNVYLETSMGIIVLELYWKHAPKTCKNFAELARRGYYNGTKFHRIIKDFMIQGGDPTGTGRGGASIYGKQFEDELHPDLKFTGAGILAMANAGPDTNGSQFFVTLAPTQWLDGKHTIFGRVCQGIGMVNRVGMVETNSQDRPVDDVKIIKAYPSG
Protocol: (§1) Adapted from previous work[52], cyclophilin in assay buffer (25 mM HEPES pH 8.0, 100 mM NaCl, 0.01% Triton X-100) at a pre-determined concentration from Supplementary Table 6 was incubated with 0.5 nM A26-Fl for 10 min at room temperature in a flat-bottom black untreated 96-well plate (Corning). Competitor macrocycle was then added to each well and incubated for 24 h. Final assay volume was 100 µL with 0.25% DMSO. Fluorescence anisotropy was then measured using a Tecan Spark plate reader using 492 nm/523 nm excitation/emission settings.

CypE K217A = molecular target: T2, CypE K217A (Homo sapiens, UniProt Q9UNP9, K217A); experiment: Competition anisotropy binding assay with A26-Fl
T2 construct: Lane 5- GS-CypE K217A (131-301);; His6 tag with thrombin site (pET28a LIC); GS remnant stays on the N-terminus (N, cleaved yes); host or cells: E. coli BL21(DE3)
Protocol: as §1

T2 sequence (Q9UNP9 131-301 K217A): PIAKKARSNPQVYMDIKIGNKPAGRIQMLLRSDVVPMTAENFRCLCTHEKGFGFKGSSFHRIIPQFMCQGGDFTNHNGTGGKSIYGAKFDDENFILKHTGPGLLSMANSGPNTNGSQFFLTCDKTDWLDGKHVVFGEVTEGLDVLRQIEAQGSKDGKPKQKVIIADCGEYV

NC(=O)C1CCNC(=O)C=CC(=O)N2CCCC(Cc3ccccc3)(C2)C(=O)NC(Cc2ccc(-c3ccc(C=O)c(B(O)O)c3)cc2)C(=O)NCc2ccccc2CC(=O)N1 (centres unmarked) [Compound C3A]
Ki (PPIL1): 1100 nM | less potent at competing A26-Fl from CypE K217A compared to wild-type CypE (CypE K217A): 40 fold
